# From patent US20220235343A1, “NOVEL ADP-RIBOSYL CYCLASE AND INHIBITOR THEREOF” (INDUSTRIAL COOPERATION FOUNDATION CHONBUK NATIONAL …, priority 2019, published 2022)
# How the values were obtained:
# Type in all cases: in vivo
# [1] = tested on: TGF-β1, fibronectin and collagen IV in kidney tissue; test: Expression of TGF-β1, fibronectin and collagen IV in kidney tissue of renal disease mouse model (immunofluorescence); details: STZ mice, DCQA i.p. every day for 6 weeks, FIG. 8
# Description: The change in the expression of TGF-β1, fibronectin and collagen IV in the kidney tissue of a renal disease mouse model was measured by the method reported by Kim S Y et al. [Kim S Y, Park K H, Gul R, Jang K Y, Kim U H. Am. J. Physiol. Renal Physiol. 296: F291-F297, 2009].
# Specifically, 0.2 mL of 50 mM citrate buffer (pH 4.8) (control group and DCQA group) or 200 μL of 5 mg/mL streptozotocin (STZ, Sigma-Aldrich (USA)) dissolved in 50 mM citrate buffer (STZ group and STZ+DCQA group) was intraperitoneally injected to C57BL/6J mice. Blood glucose was measured from day 2 after the STZ injection and the mice whose blood glucose level was 300 mg/dL were divided into an STZ group and an STZ+DCQA group. […] In order to investigate the possibility as a therapeutic agent for a renal disease, the mouse was sacrificed and serum and kidney were taken. Some of the extracted kidney was fixed in 10% formalin. The kidney tissue fixed in 10% formalin was cut into kidney tissue sections on a slide glass using a cryostat microtome. The kidney tissue sections were washed with a TTBS (Tris-buffered saline (TBS) with 0.1% Tween 20) buffer and then incubated with a TTBS buffer containing 1% bovine serum albumin (BSA) for 1 hour. The tissues were reacted with primary antibodies (TGF-β1 (Santa Cruz, USA), fibronectin (Santa Cruz, USA) and collagen IV (Abcam, UK)) diluted in a TTBS buffer containing 1% bovine serum albumin (BSA) to 1:200 at 4° C. for 12 hours or longer. After washing the tissues that reacted with the primary antibodies 3 times with a TTBS buffer, they were reacted with FITC-labeled secondary antibodies diluted in a TTBS buffer to 1:200 in the dark at room temperature for 1 hour. Then, after washing 3 times with a TTBS buffer, a cover glass was attached using a mounting solution. The stained kidney tissue was observed using a fluorescence microscope (Carl Zeiss, Germany) for observing green fluorescence.
# [2] = tested on: kidney tissue of diabetic renal disease mouse model; test: Histopathological change in kidney tissue of renal disease mouse model (H&E staining); details: STZ mice, DCQA i.p. every day for 6 weeks, FIG. 9
# Description: The histopathological change in the kidney tissue of a renal disease mouse model was measured by the method reported by Shu B et al. [Shu B, Feng Y, Gui Y, Lu Q, Wei W, Xue X, Sun X, He W, Yang J, Dai C. Cell. Signal. 42:249-258, 2018]
# Specifically, 0.2 mL of 50 mM citrate buffer (pH 4.8) (control group and DCQA group) or 200 μL of 5 mg/mL streptozotocin (STZ, Sigma-Aldrich (USA)) dissolved in 50 mM citrate buffer (STZ group and STZ+DCQA group) was intraperitoneally injected to C57BL/6J mice. Blood glucose was measured from day 2 after the STZ injection and the mice whose blood glucose level was 300 mg/dL were divided into an STZ group and an STZ+DCQA group. […] In order to investigate the possibility as a therapeutic agent for a renal disease, the mouse was sacrificed and serum and kidney were taken. Some of the extracted kidney was fixed in 10% formalin. The kidney tissue fixed in 10% formalin was cut into kidney tissue sections on a slide glass using a cryostat microtome. The kidney tissue sections were washed with running water for 5 minutes and then stained with hematoxylin for 5 minutes. After the staining, the tissue was washed with running water for 5 minutes. Then, the tissue was immersed in 157 mM hydrochloric acid 2 times and taken out quickly. Then, the tissue was immersed once in 0.25% ammonia water and taken out quickly. After washing again with running water for 5 minutes and staining with eosin for about 30 seconds, the tissue was reacted with 70% ethanol for 30 seconds, with 80% ethanol for 30 seconds, with 90% ethanol for 30 seconds, with 100% ethanol for 30 seconds, again with 100% ethanol for 30 seconds, and then again with 100% ethanol for 30 seconds. Finally, after reacting with xylene for 5 minutes and again with xylene for 5 minutes or longer, a cover glass was attached using a mounting solution.
# [3] = tested on: hypertension mouse model (L-NAME, C57BL/6J mouse); test: Blood pressure and creatinine clearance rate in L-NAME hypertension mouse model; details: DCQA 9 μg/mL 100 μL intraperitoneally every day for 7 days
# Description: The blood pressure and creatinine clearance rate in a hypertension mouse model were measured by the method reported by Allagnat et al. [Allagnat F, Haefliger J A, Lambelet M, Longchamp A, Berard X, Mazzolai L, Corpataux J M, Deglise S. Eur. J. Vasc. Endovasc. Surg. 51: 733-742, 2016] and Kim S Y et al. [Kim S Y, Park K H, Gul R, Jang K Y, Kim U H. Am. J. Physiol. Renal Physiol. 296: F291-F297, 2009]
# Specifically, 0.2 mL of 8 mg of L-NAME (Nw-nitro-L-arginine-methyl-ester, Sigma-Aldrich, USA) dissolved in 1 mL of saline was orally administered to C57BL/6J mouse every day. On days 7 and 14 of the oral administration, blood pressure was measured at the tail of the mouse. […] On day 6 after the DCQA treatment, the mouse was put in a metabolic cage and urine was collected for 24 hours.
# After measuring the blood pressure of the mouse (FIG. 11A), the mouse was sacrificed and serum was obtained.
# Creatinine clearance rate was calculated by measuring the creatinine levels in urine and serum using a creatinine assay kit (Bioassay Systems, USA) (FIG. 11B).
smiles,measurement,setting,value
"O=C(/C=C/c1ccc(O)c(O)c1)OC1[C@H](O)CC(OC(=O)/C=C/c2ccc(O)c(O)c2)(C(=O)O)C[C@H]1O (some centres unmarked) [DCQA, 1,4-dicaffeoylquinic acid]","expression level of TGF-β1 increased by STZ, decreased by DCQA",[1],to the level of the control group
same,"expression level of collagen IV increased by STZ, decreased by DCQA",[1],to the level of the control group
same,"expression level of fibronectin increased by STZ, decreased by DCQA",[1],to the level of the control group
same,"formation of transitional epithelial cells increased by STZ, recovered by DCQA",[2],to a level similar to that of the control group
same,"glomerulus hypertrophy increased by STZ, recovered by DCQA",[2],to a level similar to that of the control group
same,"infiltration of inflammatory cells increased by STZ, recovered by DCQA",[2],to a level similar to that of the control group
same,blood pressure,[3]; FIG. 11A,no effect of lowering blood pressure
same,creatinine clearance rate,[3]; FIG. 11B,increase in creatinine clearance rate
